Results as given in publication PMC9081833, “Discovery of acylphloroglucinol-based meroterpenoid enantiomers as KSHV inhibitors from Hypericum japonicum” (RSC Advances, 2018).
Like-named read-outs stand apart in the source and are kept apart here.

Legend:
[1] = tested on: KSHV lytic replication; assay: Field-based 3D QSAR model of anti-KSHV activity; parameters: species or system Kaposi's sarcoma associated herpesvirus (KSHV); unit not given here; settings: log IC50 of the anti-KSHV IC50
Description: Qualitative analysis was followed by quantitative SAR (QSAR) modelling utilizing the Field-Based QSAR Panel implemented in Schrödinger Suite[14] to set up CoMFA/CoMSIA models from these enantiomers. These enantiomers first superimposed using the flexible shape-based alignment method (Fig. 6). […] Experimental activities of additional analogues would likely provide a better model. Moreover, correlation between the observed activities and the predicted activities was plotted in Fig. 7.
QSAR studies were conducted with Schrödinger Suite 2017-1.
A data set (Table 3) was randomly assigned into training and test sets with a ratio of approximately 4/1, and their activities (IC50) were converted to the logarithm (log IC50). The minimized conformations of these enantiomers were generated utilizing LigPrep and aligned according to the flexible shape-based alignment method. The force field was used and the maximum PLS factors were set as 1/5 of the total number of the training set in order to avoid over-fitting. The parameters that were not mentioned were left as defaults.

[2] = tested on: Human iSLK.219 cells; settings: 50% cytotoxic concentration, 48 h, with Dox and NaB
[3] = tested on: KSHV lytic replication; settings: for Selective index (CC50/IC50): human; for IC50: supernatant of iSLK.219 cells treated 48 h used to infect Vero cells 48 h, GFP readout
[4] = in vitro; settings: human, CC50, 50% cytotoxic concentration, iSLK.219 cells, 48 h, with Dox and NaB
[5] = tested on: KSHV lytic replication; assay: in vitro; settings: human, Selective index (CC50/IC50)
[6] = tested on: KSHV lytic replication; assay: microbe, parasite or virus in culture; settings: Human gammaherpesvirus 8, Vero, 48 h, supernatant of iSLK.219 cells treated 48 h used to infect Vero cells 48 h, GFP readout

SMILES	Observed activity [1]	CC50 [2]	Selective index (CC50/IC50) [3]	IC50 [3]	CC50 [4]	selectivity ratio [5]	IC50 [6]
CC(C)=CCCC(C)(O)C1Cc2c(O)cc(O)c(C(=O)c3ccccc3)c2O1 (single isomer, unassigned; (-)) [Compound 4b, (−)-japonicol H]	1.469	> 200 µM	>6.79	29.5 µM	–	–	–
CC(C)C(=O)c1c(O)cc(O)c(CC2C(C(C)(C)O)CCC2(C)O)c1O (stereo not shown) [Compound 8a]	1.602	–	>7.50	40 µM	> 300 µM	–	–
Nc1ccn(C[C@@H](CO)OCP(=O)(O)O)c(=O)n1 [Cidofovir, reference compound]	–	–	–	–	> 1 µM	> 123	0.0081 µM
CC(C)=CCCC(C)(O)C1Cc2c(O)cc(O)c(C(=O)c3ccccc3)c2O1 (single isomer, unassigned; (+)) [Compound 4a, (+)-japonicol H]	0.690	–	25.70	4.9 µM	126 µM	–	–
CC(C)C(=O)c1c(O)cc(O)c2c1OC1(C)CCC(C(C)(C)O)OC1C2 (stereo not shown) [Compound 6b]	1.600	174 µM	–	–	–	–	–
CC(C)C(=O)c1c(O)cc(O)c(CC2C(C(C)(C)O)CCC2(C)O)c1O (stereo not shown) [Compound 8b]	2.200	> 300 µM	>1.89	158 µM	–	–	–
CC(C)=CCCC1(C)Oc2c(c(O)cc(O)c2C(=O)C(C)C)CC1O (single isomer, unassigned; (+)) [Compound 2a, (+)-japonicol F]	1.447	–	–	–	126 µM	4.5	28 µM
CC(C)C(=O)c1c(O)cc(O)c2c1OC(C)(C)C1CCC(C)(O)C1C2 (stereo not shown) [Compound 7a]	0.942	–	–	17.7 µM	221 µM	–	–
CC(C)C(=O)c1c(O)cc(O)c2c1OC1(C)CCC(C(C)(C)O)C2C1O (stereo not shown) [Compound 5a]	2.307	–	–	–	> 500 µM	> 2.46	203 µM
CC(C)=CCCC(C)(O)C1Cc2c(O)cc(O)c(C(=O)C(C)C)c2O1 (single isomer, unassigned; (-)) [Compound 3b, (−)-japonicol G]	0.826	50.1 µM	7.48	6.7 µM	–	–	–
CC(C)=CCCC(C)(O)C1Cc2c(O)cc(O)c(C(=O)C(C)C)c2O1 (single isomer, unassigned; (+)) [Compound 3a, (+)-japonicol G]	1.337	–	3.66	21.7 µM	79.5 µM	–	–
CC(C)C(=O)c1c(O)cc(O)c2c1OC(C)(C)C1CCC(C)(O)C1C2 (stereo not shown) [Compound 7b]	1.464	> 300 µM	–	39.8 µM	–	–	–
CC(C)C(=O)c1c(O)cc(O)c2c1OC1(C)CCC(C(C)(C)O)C2C1O (stereo not shown) [Compound 5b]	2.149	> 500 µM	>3.55	141 µM	–	–	–
CC(C)C(=O)c1c(O)cc(O)c2c1OC1(C)CCC(C(C)(C)O)OC1C2 (stereo not shown) [Compound 6a]	1.247	–	–	–	141 µM	–	–
CC(C)=CCCC1(C)Oc2c(c(O)cc(O)c2C(=O)C(C)C)CC1O (single isomer, unassigned; (-)) [Compound 2b, (−)-japonicol F]	1.436	150 µM	5.50	27.3 µM	–	–	–
C=C(C)C1CCC2(C)Oc3c(c(O)cc(O)c3C(=O)C(C)C)CC12 (single isomer, unassigned; (+)) [Compound 1a, (+)-japonicol E]	0.919	–	23.49	8.3 µM	195 µM	–	–
C=C(C)C1CCC2(C)Oc3c(c(O)cc(O)c3C(=O)C(C)C)CC12 (single isomer, unassigned; (-)) [Compound 1b, (−)-japonicol E]	1.388	190 µM	7.78	24.5 µM	–	–	–
